This is an account of results in patent publication US20150238614A1, “STABILISED AMORPHOUS FORM OF AGOMELATINE, A PROCESS FOR ITS PREPARATION AND PHARMACEUTICAL COMPOSITIONS CONTAINING IT” (LES LABORATOIRES SERVIER, priority 2012, published 2015).

For data set [1] the following is noted: 25° C.; cited from earlier work.
A short description of data set [2]: Glass transition temperature by scanning calorimetric analysis (DSC). It is filed as physicochemical. As to the method: The Applicant has now discovered that agomelatine has an amorphous state whose glass transition temperature has been measured at −6° C. by scanning calorimetric analysis, or DSC (“Differential Scanning calorimetry”). Above that temperature, the active ingredient undergoes a transition towards a crystalline form. Preserving agomelatine in the amorphous state at ambient temperature is therefore not possible.

A short description of data set [3]: Solubility study, Crystal16 apparatus, pH 6.8 buffer, nephelometric detection. It is filed as physicochemical. To be noted: pH 6.8 buffer solution, aqueous buffer, thermodynamic from solid, 25° C., reference under the study conditions, read-out: Solubility of agomelatine (reference). The protocol: Various concentrations were tested and the presence of insoluble particles was monitored by nephelometric detection.

A word on the solubility: it is the dissolved amount per volume that the medium holds.

≈ marks a conversion by molar mass, not a printed value.

With `COc1ccc2cccc(CCNC(C)=O)c2c1` [agomelatine, N-[2-(7-methoxy-1-naphthyl)ethyl]acetamide], in data set [1], the “Solubility of agomelatine in water” value is recorded as “less than 0.15 mg/ml”. Further, in data set [2], the “Glass transition temperature of the amorphous state” value was −6 °C. Also, the solubility at 4 h in data set [3] worked out at 140 µg/mL (≈ 575 µM).
